Measurements as given in patent EP4154876B1, “CBX7 INHIBITOR FOR USE IN THE TREATMENT AND/OR PREVENTION OF A BLOOD VESSEL DISORDER” (Universität Potsdam, priority 2021, dated 2023).
Where a SMILES comes first, the peptide text is derived from it. [ ]: non-standard residue; d: D form. The star is where a group is joined. Benzoyl(4-tBu) = CC(C)(C)c1ccc(C(=O)*)cc1; Lys(Et2) = CCN(CC)CCCC[C@H](N)C(=O)O

What was measured:
ccm2 mutants = assay: Pharmacological treatment of zebrafish ccm2 mutants (CCM disease model); type: in vivo; conditions: for posterior caudal vein plexus: ccm2 mutants after treatment with inhibitor, Fig. 4A right column; for heart phenotype (strongly enlarged and ballooning heart): ccm2 mutants treated with inhibitor, Fig. 4A left column
Experimental: In ccm2 mutants the heart is strongly enlarged and ballooning. In ccm2 mutants treated with MS37452 or MS351, this phenotype is suppressed and is reminiscent of wild type. Similarly, the posterior caudal vein plexus in ccm2 mutants is fenestrated after treatment with the inhibitors. Quantifications of these phenotype classes are in B). To elucidate whether a pharmacological suppression of Cbx7a has the same effect on the zebrafish CCM model, specific small compound inhibitors of CBX7 were tested (MS37452 and MS351). Both inhibitors block the binding of CBX7 to histone modifications on genomic DNA and suppress the epigenetic function of this protein within the Polycomb repressive complex (PRC1) (Fig. 3). Both inhibitors suppress the expression of the CCM phenotype in zebrafish disease models (Fig. 4). The effects of both inhibitors are reminiscent of the genetic knockout of cbx7a in ccm2 mutants. Heart phenotypes is shown in Fig. 4A left column while the region of the posterior caudal vein plexus in Fig. 4A right column. In ccm2 mutants the heart is strongly enlarged and ballooning. In ccm2 mutants treated with MS37452 or MS351, this phenotype is suppressed and is reminiscent of wild type. Similarly, the posterior caudal vein plexus in ccm2 mutants is fenestrated after treatment with the inhibitors. Quantifications of these phenotype classes are shown Fig. 4B. The y-axis represents the ratio of the amounts of embryos with suppressed ballooning heart and abnormal caudal vein plexus phenotype to the amounts of embryos with ballooning heart and abnormal caudal vein plexus phenotype.

CBX7ChD = target: T1, CBX7ChD (Homo sapiens, UniProt O95931); conditions: estimated; determined by NMR titration; CBX7ChD alone; cited from earlier work
T1 sequence (O95931 11-69 limits assumed): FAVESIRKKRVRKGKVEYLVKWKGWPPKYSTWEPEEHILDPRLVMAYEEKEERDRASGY

[1] = system: ChDs from other CBX proteins including CBX1/3/5 (HP1β/γ/α) and CBX2/4/6/8; conditions: cited from earlier work
chromodomains of CBX7 = target: T2, chromodomains of CBX7 (Homo sapiens, UniProt O95931); conditions: CBX7 chromodomain; cited from earlier work
T2 sequence (O95931 11-69 limits assumed): T1 sequence (O95931 11-69 limits assumed)

| Structure (SMILES) | posterior caudal vein plexus (ccm2 mutants) | heart phenotype (strongly enlarged and ballooning heart) (ccm2 mutants) | Kd (CBX7ChD) | binding to ChDs from other CBX proteins [1] | Kd (chromodomains of CBX7) |
| --- | --- | --- | --- | --- | --- |
| Cc1ccccc1Cn1c(=N)n(CC(O)c2ccc(Cl)c(Cl)c2)c2ccccc21.Cl (stereo not shown) [MS351] | fenestrated | suppressed | ~500 µM | does not bind | – |
| COc1cccc(C(=O)N2CCN(C(=O)COc3cccc(C)c3)CC2)c1OC [MS37452] | fenestrated | suppressed | – | – | – |
| CCN(CC)CCCC[C@H](NC(=O)[C@H](CC(C)C)NC(=O)[C@H](C)NC(=O)[C@H](Cc1ccccc1)NC(=O)c1ccc(C(C)(C)C)cc1)C(=O)N[C@@H](CO)C(=O)OC [UNC3866] ({Benzoyl(4-tBu)}-FAL[Lys(Et2)]S-OMe) | – | – | – | – | ~0.1 µM |
